Molecular target: T1, UGT93Y1 (Camellia sinensis, UniProt A0A4S4F2U3)
T1 construct: gene TEA_008645; UGT 467 aa, fusion about 80 kDa; His29, Asp134, PSPG box Trp342-Gln385, TSS 413-415
Experiment: UDP Glo glycosyltransferase assay
Type: biochemical
Conditions: UDP-glucose as donor; 30 °C; 0-1000 µM menthol; kinetic fit with substrate inhibition, two-site sequential model with identical dissociation constants

T1 sequence (A0A4S4F2U3 entry or part of it): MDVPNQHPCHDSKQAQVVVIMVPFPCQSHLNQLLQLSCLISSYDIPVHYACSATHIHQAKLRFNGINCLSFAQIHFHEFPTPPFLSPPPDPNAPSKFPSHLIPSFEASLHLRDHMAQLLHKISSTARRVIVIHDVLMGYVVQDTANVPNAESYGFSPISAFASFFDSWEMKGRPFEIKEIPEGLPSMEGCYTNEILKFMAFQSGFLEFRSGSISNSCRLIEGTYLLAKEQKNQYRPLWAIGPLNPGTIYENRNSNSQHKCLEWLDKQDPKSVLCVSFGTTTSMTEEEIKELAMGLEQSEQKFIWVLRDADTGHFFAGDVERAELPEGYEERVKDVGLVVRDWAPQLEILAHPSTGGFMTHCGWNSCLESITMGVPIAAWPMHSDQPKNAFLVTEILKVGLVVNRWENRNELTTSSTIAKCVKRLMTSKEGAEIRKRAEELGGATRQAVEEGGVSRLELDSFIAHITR

SMILES: CC1CCC(C(C)C)C(O)C1 (racemic) [(±)-menthol]
- Kd: 453 µM

— publication PMC8470988, “Glucosylation of (±)-Menthol by Uridine-Diphosphate-Sugar Dependent Glucosyltransferases from Plants” (Molecules, 2021)
